These results are taken from patent US8299252B2, “Pyrazolopyridine and pyrrolopyridine multikinase inhibitors” (Chugai Seiyaku Kabushiki Kaisha, priority 2005, dated 2012).

Data set [1] concerns human umbilical vein endothelial cells (HUVEC), VEGF-dependent proliferation. In words: VEGF-dependent HUVEC proliferation inhibition assay. The class given is cell-based. To be noted: read-out: 50% proliferation inhibitory concentration (IC50 value) HUVEC (VEGF-dependent), 20 ng/mL of VEGF, 72 hours, WST-1. How it is done:
(§1) The compounds according to the present invention were measured for cancer cell proliferation inhibitory activity and human umbilical vein endothelial cell (HUVEC) proliferation inhibitory activity.
(§2) Test compounds were serially diluted with dimethyl sulfoxide and then diluted 50 times with Ca^2+- and Mg^2+-free phosphate-buffered saline, and 20 μL of each of the resulting solution was dispensed into a 96-well plate. […] Each cell suspension contains approximately 3000 cells/180 μL. These cell suspensions were dispensed to the plate containing the test compounds at 180 μL/well and incubated in a 5% carbon dioxide gas incubator at 37° C. for 72 hours. 20 μL of WST-8 (HCT116, Dojin) or WST-1 (HUVEC, Roche Diagnostics) was added to each well, and absorbance at 450 nm (reference wavelength: 650 nm) was measured.
A general note: Tetrazolium assays rely on reduction of a dye to a coloured formazan, in cell work by metabolically active cells.

Data set [2] relates to tube formation of human-derived vascular endothelial cells (HUVEC). The data set is described as follows: Tube formation inhibition test (angiogenesis assay kit, KURABO). The class given is cell-based. Particulars: 264 h, final concentration 6.4 nM, 11 days, read-out: Tube formation inhibition ratio (%). The method, then: The formed tubes were stained with a tube staining kit CD31 (KURABO). The stain image of each well was taken under a microscope, stored in an image file, and measured for the tube formation area using angiogenesis quantitative analysis software of KURABO. The inhibition ratio % of each test compound added to the well was calculated, provided that the ratio of the reference was 100%.

For data set [3], the system named is human umbilical vein endothelial cells (HUVEC), VEGF-independent proliferation. The data set is described as follows: VEGF-independent HUVEC proliferation inhibition assay. To be noted: read-out: 50% proliferation inhibitory concentration (IC50 value) HUVEC (VEGF-independent), vascular endothelial cell growth-promoting agent and heparin, 72 hours, WST-1. The class given is cell-based. How it is done: as §1, §2

Data set [4] deals with human colon cancer cell line HCT116 cells. In words: Cell proliferation inhibitory activity, HCT116. The data set is classed as cell-based. Particulars: Homo sapiens, HCT-116, read-out: 50% proliferation inhibitory concentration (IC50 value) HCT116; HCT116, 72 hours, WST-8. The method, then:
as §1, §2

The target in data set [5] is T1, FLT3 intracellular domain protein (Homo sapiens, UniProt P36888).
T1 sequence (P36888 564-993 limits assumed): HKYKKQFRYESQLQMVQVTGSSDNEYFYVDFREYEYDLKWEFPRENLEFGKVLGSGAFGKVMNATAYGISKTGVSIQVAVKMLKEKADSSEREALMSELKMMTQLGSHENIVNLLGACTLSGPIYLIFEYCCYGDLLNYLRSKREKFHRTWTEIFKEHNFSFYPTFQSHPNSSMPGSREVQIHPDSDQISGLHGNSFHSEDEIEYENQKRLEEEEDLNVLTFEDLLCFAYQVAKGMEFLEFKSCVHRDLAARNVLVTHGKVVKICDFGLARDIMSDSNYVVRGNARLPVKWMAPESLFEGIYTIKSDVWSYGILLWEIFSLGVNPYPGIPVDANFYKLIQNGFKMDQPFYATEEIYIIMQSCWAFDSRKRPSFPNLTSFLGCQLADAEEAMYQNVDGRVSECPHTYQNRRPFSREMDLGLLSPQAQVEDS
In words: Flt3 enzyme inhibition test (HTRF). The data set is classed as biochemical. To be noted: phosphorylation of biotinylated peptide. The method, then: The FLT3 inhibitory activity was measured by the activity of FLT3 intracellular domain protein inhibiting for phosphorylation of a biotinylated peptide ([…]).
In general terms: TR-FRET usually uses a lanthanide donor and a delayed reading to cut background.

Data set [6] relates to human colon cancer cell line HCT116 cells. The data set is described as follows: Antitumor test, HCT116 transplanted subcutaneously in nude mice. To be noted: once a day for 12 days; for Tumor growth inhibition ratio (%): last administration day; for Decrease ratio in body weight (%): maximum decrease. The class given is in vivo, female Balb/c nude mouse. How it is done:
A cell suspension of human colon cancer cell line HCT116 cells was prepared using Hanks's solution, and 5.0×10^6 cells thereof were transplanted subcutaneously into the flank of each female Balb/c nude mouse. Oral administration of the test compound (once a day for 12 days) was started when the transplanted tumor volume reached 200 to 250 mm^3. The tumor volume was calculated by the expression: 0.5×(minor axis)^2×(major axis). The tumor growth inhibition ratio of tumor growth of the test compound to tumor growth of the reference group was determined.

Data set [7] can be described thus: Solubility in fasted state simulated intestinal fluid. The class given is physicochemical. To be noted: pH 6.5, fassif, kinetic from dmso stock, fasted state simulated intestinal fluid (pH6.5), 37° C. How it is done:
2 μL of each dimethyl sulfoxide solutions containing test compounds were dispensed into wells of a 96-well plate, and 200 μL of fasted state simulated intestinal fluid (pH6.5) was added to each well. The plate was shaken at 37° C. for 20 hours. The solution was filtered through a membrane filter, and 101 μL of the filtrate was transferred to a UV plate, followed by addition of 100 μL of a solution mixture of ethanol:water=2:1 thereto. Separately, as a standard, 101 μL of a solution prepared by 2 μL of a dimethyl sulfoxide solution, 4 μL of dimethyl sulfoxide, 400 μL of ethanol, and 200 μL of water was transferred to a UV plate, and 100 μL of fasted state simulated intestinal fluid (pH6.5) was added thereto. The solubility was calculated by the following expression: Solubility=[(absorbance of test solution)−blank]/[(absorbance of standard solution)−blank]×165 μM (165 μM is the concentration of the standard solution) Composition of the fasted state simulated intestinal fluid (pH6.5)
The composition was prepared in compliance with the description in E. Galia, et al., Pharm. Res. 1998, 698.
Taurocholic acid (161 mg), L-α-phosphatidylcholine (59 mg), potassium dihydrogen phosphate (0.39 g), and potassium chloride (0.77 g) were added to about 90 mL of water. The resulting solution was adjusted to a pH of 6.5 with a sodium hydroxide aqueous solution and then diluted to a volume of 100 mL with water. The solution was filtered through a membrane filter.

The target of data set [8] is KDR intracellular domain protein (Homo sapiens, UniProt P35968). The data set is described as follows: KDR enzyme inhibition assay (biotinylated peptide phosphorylation, HTRF). The data set is classed as biochemical. To be noted: phosphorylation of biotinylated peptide. How it is done: (§3) The compounds according to the present invention were measured for Raf-1 and KDR enzyme inhibitory activities.
KDR intracellular domain protein, sequence (P35968 786-1356 limits assumed): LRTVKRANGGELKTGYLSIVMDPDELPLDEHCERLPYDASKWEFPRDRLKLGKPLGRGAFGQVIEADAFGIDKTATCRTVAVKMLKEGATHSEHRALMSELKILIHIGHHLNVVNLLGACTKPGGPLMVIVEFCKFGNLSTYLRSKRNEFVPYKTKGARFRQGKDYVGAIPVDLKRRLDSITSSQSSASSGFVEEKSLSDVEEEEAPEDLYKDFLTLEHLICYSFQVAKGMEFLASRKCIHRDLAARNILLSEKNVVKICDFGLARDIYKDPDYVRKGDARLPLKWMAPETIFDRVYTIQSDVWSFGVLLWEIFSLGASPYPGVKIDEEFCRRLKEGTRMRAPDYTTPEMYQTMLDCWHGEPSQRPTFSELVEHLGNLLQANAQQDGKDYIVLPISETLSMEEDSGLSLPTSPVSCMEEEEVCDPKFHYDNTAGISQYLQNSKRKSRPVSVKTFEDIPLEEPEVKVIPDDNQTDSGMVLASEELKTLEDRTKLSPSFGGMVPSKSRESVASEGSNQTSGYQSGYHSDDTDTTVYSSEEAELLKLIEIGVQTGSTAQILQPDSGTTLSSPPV
(§4) The Raf-1 inhibitory activity was measured by the activity of Raf-1 protein for inhibiting phosphorylation of MEK-1 protein having six histidine residues (His6) fused to the N-terminus thereof. […] The KDR inhibitory activity was measured by the activity of KDR intracellular domain protein for inhibiting phosphorylation of a biotinylated peptide ([…]).

In the next data set the target is Raf-1 (Homo sapiens, UniProt P04049). The data set is described as follows: Raf-1 enzyme inhibition assay (MEK-1 phosphorylation, HTRF). The class given is biochemical. To be noted: phosphorylation of His6-MEK-1. The method, then: as §3, §4
Raf-1, sequence (P04049 whole entry): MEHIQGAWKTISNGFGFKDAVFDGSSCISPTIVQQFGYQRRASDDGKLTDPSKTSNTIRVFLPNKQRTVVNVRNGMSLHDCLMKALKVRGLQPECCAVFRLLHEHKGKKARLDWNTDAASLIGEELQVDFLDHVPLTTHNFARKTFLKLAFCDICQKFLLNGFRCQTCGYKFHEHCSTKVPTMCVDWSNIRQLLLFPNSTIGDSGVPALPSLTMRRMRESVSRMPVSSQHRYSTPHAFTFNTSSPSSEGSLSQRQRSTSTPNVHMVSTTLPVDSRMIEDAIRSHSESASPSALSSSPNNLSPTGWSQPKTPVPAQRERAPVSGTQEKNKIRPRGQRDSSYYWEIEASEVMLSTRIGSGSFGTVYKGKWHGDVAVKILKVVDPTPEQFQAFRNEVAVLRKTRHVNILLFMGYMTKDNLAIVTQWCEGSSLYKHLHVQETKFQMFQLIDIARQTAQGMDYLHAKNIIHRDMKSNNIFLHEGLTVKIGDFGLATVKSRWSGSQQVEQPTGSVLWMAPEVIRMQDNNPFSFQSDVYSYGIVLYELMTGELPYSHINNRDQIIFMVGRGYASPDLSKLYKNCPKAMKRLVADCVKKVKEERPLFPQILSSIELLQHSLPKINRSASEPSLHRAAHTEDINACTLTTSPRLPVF
Data set [9] deals with choroidal neovascularization. The data set is described as follows: Laser coagulation-induced murine choroidal neovascularization model. The data set is classed as in vivo, C57BL6J mice. To be noted: for Average FA score: once a day for three days. How it is done:
Laser coagulation was performed on two- to three-month-old C57BL6J mice (ten mice per group) by using a 408 nm semiconductor laser (DC-3000, Nidek). Both eyes were each irradiated at three positions with a spot size of 170 μm, an exposure time of 0.02 sec, and an output of 200 mW. The drug was orally administered once a day for three days beginning on the day of the laser coagulation. On the next day of the last administration, the mice were intravenously injected with 7 mg/kg of fluorescein. Five minutes after the injection, three fluorescent fundus images of each eye were taken (TRC-501X, Topcon) and stored in a CCD camera having 640×480 pixels as an image file. The total pixel brightness (0 to 1) in regions where fluorescein leakage was detected was used as an index (FA score) of choroidal neovascularization activity. The FA score was calculated by defining reference values such that the pixel brightness in a capillary region of a non-coagulated site is 0 and the pixel brightness on a main branch of the retinal blood vessel is 1.

In brackets after ≈: the same amount, converted by molar mass.

In the case of `COCCOc1ccc(NC(=O)Nc2ccc(Oc3ccnc4[nH]ccc34)cc2)cc1C(F)(F)F` [Compound 1, 1-[4-(2-methoxyethoxy)-3-(trifluoromethyl)phenyl]-3-[4-(1H-pyrrolo[2,3-b]pyridin-4-yloxy)phenyl]urea], the IC50 in [1] stood at 0.0037 µM; in data set [3] it was 2.6 µM; in data set [4] it was 2.1 µM; in [5], 0.0032 µM. Besides, the inhibition at 0.0064 µM in data set [2] amounted to 98%.
For `COCCOc1ccc(NC(=O)Nc2ccc(Oc3ccnc4[nH]ncc34)cc2)cc1C(F)(F)F` [Compound 2, 1-[4-(2-Methoxyethoxy)-3-(trifluoromethyl)phenyl]-3-[4-(1H-pyrazolo[3,4-b]pyridin-4-yloxy)phenyl]urea], in data set [2], the inhibition at 0.0064 µM was found to be 82%.
In the case of `O=C(Nc1ccc(Oc2ccnc3[nH]ccc23)cc1)Nc1ccc(OC2CCOCC2)c(C(F)(F)F)c1` [Compound 7, 1-[4-(1H-Pyrrolo[2,3-b]pyridin-4-yloxy)phenyl]-3-[4-(tetrahydropyran-4-yloxy)-3-(trifluoromethyl)phenyl]urea], the IC50 in [1] is 0.0039 µM; in [3] it was 0.86 µM; in data set [4], 3.2 µM; in [5], 0.0069 µM. For the same compound, the inhibition at 0.0064 µM in data set [2] worked out at 99%. Also, in data set [6] (200 mg/kg oral), the “Tumor growth inhibition ratio (%)” value came to 97%. In addition, the “Decrease ratio in body weight (%)” value in data set [6] (200 mg/kg oral) is 3.6%.
In general, solubility refers to the concentration that dissolves in the medium under given conditions. Low readings indicate little dissolved substance, high ones much dissolved substance. For `O=C(Nc1ccc(Oc2ccnc3[nH]ccc23)cc1)Nc1ccc(CCCF)c(C(F)(F)F)c1` [Compound 11, 1-[4-(3-Fluoropropyl)-3-(trifluoromethyl)phenyl]-3-[4-(1H-pyrrolo[2,3-b]pyridin-4-yloxy)phenyl]urea], the IC50 in data set [1] is 0.0058 µM; in data set [3] it was 0.65 µM; in data set [4], 1.6 µM; in [5], 0.0097 µM. In [2], the inhibition at 0.0064 µM is 82%. Besides, the solubility at 20 h in data set [7] was 14 µg/mL (≈ 29.6 µM). Also, in [6] (100 mg/kg oral), the “Tumor growth inhibition ratio (%)” value turned out to be 89%. Also, the “Decrease ratio in body weight (%)” value in data set [6] (100 mg/kg oral) is 7.8%.
As to `O=C(Nc1ccc(Oc2ccnc3[nH]ccc23)cc1)Nc1ccc(OCCF)c(C(F)(F)F)c1` [Compound 15, 1-[4-(2-Fluoroethoxy)-3-(trifluoromethyl)phenyl]-3-[4-(1H-pyrrolo[2,3-b]pyridin-4-yloxy)phenyl]urea], the IC50 in data set [1] came out at 0.004 µM; in [3], 1.2 µM; in [4], 2.3 µM; in data set [5] it was 0.011 µM. Also, in [2], the inhibition at 0.0064 µM came to 100%.
On to `O=C(Nc1ccc(Oc2ccnc3[nH]ncc23)cc1)Nc1ccc(CCCF)c(C(F)(F)F)c1` [Compound 19, 1-[4-(3-Fluoro-propyl)-3-(trifluoromethyl)phenyl]-3-[4-(1H-pyrazolo[3,4-b]pyridin-4-yloxy)phenyl]urea], for which the IC50 came out at 0.0018 µM in data set [1], 0.3 µM in [3], 2.4 µM in [4] and 0.018 µM in data set [5]. The inhibition at 0.0064 µM in [2] was determined as 98%. In [7], the concentration in solution (solubility at 20 h) was 16 µg/mL (≈ 33.8 µM). The “Tumor growth inhibition ratio (%)” value in data set [6] (100 mg/kg oral) is 89%. For the same compound, the “Decrease ratio in body weight (%)” value in data set [6] (100 mg/kg oral) was 4.9%.
`O=C(Nc1ccc(Oc2ccnc3[nH]ccc23)cc1)Nc1ccc(CCF)c(C(F)(F)F)c1` [Compound 21, 1-[4-(2-Fluoroethyl)-3-(trifluoromethyl)phenyl]-3-[4-(1H-pyrrolo[2,3-b]pyridin-4-yloxy)phenyl]urea]: the IC50 came to 0.0044 µM in data set [1], 0.86 µM in data set [3] and 1.3 µM in [4]. Also, the inhibition at 0.0064 µM in [2] is 100%.
On to `O=C(Nc1ccc(Oc2ccnc3[nH]ccc23)cc1)Nc1cc(CCF)cc(C(F)(F)F)c1` [Compound 22, 1-[3-(2-Fluoroethyl)-5-(trifluoromethyl)phenyl]-3-[4-(1H-pyrrolo[2,3-b]pyridin-4-yloxy)phenyl]urea], for which the IC50 in [1] was 0.0054 µM; in data set [3], 0.63 µM; in data set [4], 1.3 µM; in [5] it was 0.014 µM; in [8], 0.0036 µM; against Raf-1, 0.023 µM. For the same compound, in data set [2], the inhibition at 0.0064 µM was 96%. In [7], the concentration in solution (solubility at 20 h) came to 16 µg/mL (≈ 34.9 µM).
As for `O=C(Nc1ccc(Oc2ccnc3[nH]ccc23)cc1)Nc1ccc(CF)c(C(F)(F)F)c1` [Compound 51, 1-(4-fluoromethyl-3-trifluoromethyl-phenyl)-3-[4-(1H-pyrrolo[2,3-b]pyridin-4-yloxy)phenyl]urea], the IC50 in data set [1] is 0.004 µM; in data set [3] it was 0.8 µM; in [4], 1 µM; in data set [5], 0.016 µM; in [8] it was 0.00035 µM; against Raf-1 it was 0.035 µM. The solubility at 20 h in [7] was 15 µg/mL (≈ 33.8 µM).
Consider `O=C(Nc1ccc(Oc2ccnc3[nH]ccc23)cc1)Nc1ccc(Oc2ccc(F)cc2)c(C(F)(F)F)c1` [Compound 58, 1-[4-(4-Fluorophenoxy)-3-(trifluoromethyl)phenyl]-3-[4-(1H-pyrrolo[2,3-b]pyridin-4-yloxy)phenyl]urea], for which the “inhibition of the angiogenesis (in words)” value in data set [9] (50 mg/kg) is “significantly inhibited”. Besides, the “Average FA score” value in data set [9] (50 mg/kg oral) is on record as 7.127; in [9] (100 mg/kg oral) it was 6.664.
